Tested on: 991263-137-R1-J2-PDC complex spheroid viability
Assay: Anticancer human tumor 991263-137-R1-J2-PDC patient-derived colon adenocarcinoma cell line growth inhibition [POLQ]
Conditions: for IC50: curve of first compound; for viability, T/C: stronger effect = lower value
Summary of the method: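 Three-cell-type spheroids modelling solid tumor plus stroma served as the readout system; POL inhibitors were tested individually and in combination, concentration ranges set by clinical Cmax where known.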

[1] = second compound 0.0316 µM, first compound 0.0316 µM
[2] = second compound 0.0316 µM, first compound 0.1 µM
[3] = second compound 0.0316 µM, first compound 0.316 µM
[4] = second compound 0.0316 µM, first compound 1 µM
[5] = second compound 0.0316 µM, first compound 3.16 µM
[6] = second compound 0.0316 µM, first compound 10 µM
[7] = second compound 0.1 µM, first compound 0.0316 µM
[8] = second compound 0.1 µM, first compound 0.1 µM
[9] = second compound 0.1 µM, first compound 0.316 µM
[10] = second compound 0.1 µM, first compound 1 µM
[11] = second compound 0.1 µM, first compound 3.16 µM
[12] = second compound 0.1 µM, first compound 10 µM
[13] = second compound 0.316 µM, first compound 0.0316 µM
[14] = second compound 0.316 µM, first compound 0.1 µM
[15] = second compound 0.316 µM, first compound 0.316 µM
[16] = second compound 0.316 µM, first compound 1 µM
[17] = second compound 0.316 µM, first compound 3.16 µM
[18] = second compound 0.316 µM, first compound 10 µM
[19] = second compound 1 µM, first compound 0.0316 µM
[20] = second compound 1 µM, first compound 0.1 µM
[21] = second compound 1 µM, first compound 0.316 µM
[22] = second compound 1 µM, first compound 1 µM
[23] = second compound 1 µM, first compound 3.16 µM
[24] = second compound 1 µM, first compound 10 µM
[25] = second compound 3.16 µM, first compound 0.0316 µM
[26] = second compound 3.16 µM, first compound 0.1 µM
[27] = second compound 3.16 µM, first compound 0.316 µM
[28] = second compound 3.16 µM, first compound 1 µM
[29] = second compound 3.16 µM, first compound 3.16 µM
[30] = second compound 3.16 µM, first compound 10 µM
[31] = second compound 10 µM, first compound 0.0316 µM
[32] = second compound 10 µM, first compound 0.1 µM
[33] = second compound 10 µM, first compound 0.316 µM
[34] = second compound 10 µM, first compound 1 µM
[35] = second compound 10 µM, first compound 3.16 µM
[36] = second compound 10 µM, first compound 10 µM
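Further: spheroids exposed to compounds for 7 days before readout.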
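Wherever viability, T/C is given: 100% = DMSO vehicle control viability.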

SMILES: CC1COCCN1c1cc(C2(S(C)(=N)=O)CC2)nc(-c2ccnc3[nH]ccc23)n1 (stereo not drawn) + Nc1ccc(C#CCN(C(=O)Cc2ncc(C(F)(F)F)cc2C(F)(F)F)c2ccc(F)cc2)nn1
- IC50 (second compound 0.0316 µM): > 10 µM
- IC50 (second compound 0.1 µM): > 10 µM
- IC50 (second compound 0.316 µM): > 10 µM
- IC50 (second compound 1 µM): > 10 µM
- IC50 (second compound 3.16 µM): > 10 µM
- IC50 (second compound 10 µM): > 10 µM
- viability, T/C [1]: 100%
- viability, T/C [2]: 104%
- viability, T/C [3]: 108%
- viability, T/C [4]: 109%
- viability, T/C [5]: 97.5%
- viability, T/C [6]: 86%
- viability, T/C [7]: 114%
- viability, T/C [8]: 110%
- viability, T/C [9]: 93.9%
- viability, T/C [10]: 105%
- viability, T/C [11]: 108%
- viability, T/C [12]: 97.2%
- viability, T/C [13]: 97.7%
- viability, T/C [14]: 103%
- viability, T/C [15]: 110%
- viability, T/C [16]: 103%
- viability, T/C [17]: 108%
- viability, T/C [18]: 89.2%
- viability, T/C [19]: 119%
- viability, T/C [20]: 109%
- viability, T/C [21]: 106%
- viability, T/C [22]: 106%
- viability, T/C [23]: 104%
- viability, T/C [24]: 85.1%
- viability, T/C [25]: 101%
- viability, T/C [26]: 102%
- viability, T/C [27]: 102%
- viability, T/C [28]: 97.5%
- viability, T/C [29]: 101%
- viability, T/C [30]: 83.9%
- viability, T/C [31]: 109%
- viability, T/C [32]: 106%
- viability, T/C [33]: 115%
- viability, T/C [34]: 99.5%
- viability, T/C [35]: 93.4%
- viability, T/C [36]: 63.6%

SMILES: CCc1c2c(nc3ccc(O)cc13)-c1cc3c(c(=O)n1C2)COC(=O)[C@]3(O)CC + Nc1ccc(C#CCN(C(=O)Cc2ncc(C(F)(F)F)cc2C(F)(F)F)c2ccc(F)cc2)nn1
- IC50 (second compound 0.0316 µM): 0.081 µM
- IC50 (second compound 0.1 µM): 0.0621 µM
- IC50 (second compound 0.316 µM): 0.101 µM
- IC50 (second compound 1 µM): 0.11 µM
- IC50 (second compound 3.16 µM): 0.0909 µM
- IC50 (second compound 10 µM): 0.0941 µM
- viability, T/C (second compound 0.0316 µM, first compound 0.00316 µM): 90.7%
- viability, T/C (second compound 0.0316 µM, first compound 0.01 µM): 76.1%
- viability, T/C [1]: 51.9%
- viability, T/C [2]: 51.2%
- viability, T/C [3]: 42%
- viability, T/C [4]: 26.2%
- viability, T/C (second compound 0.1 µM, first compound 0.00316 µM): 95.9%
- viability, T/C (second compound 0.1 µM, first compound 0.01 µM): 78.6%
- viability, T/C [7]: 52.9%
- viability, T/C [8]: 45.3%
- viability, T/C [9]: 42.8%
- viability, T/C [10]: 30.2%
- viability, T/C (second compound 0.316 µM, first compound 0.00316 µM): 102%
- viability, T/C (second compound 0.316 µM, first compound 0.01 µM): 89.6%
- viability, T/C [13]: 58%
- viability, T/C [14]: 52.9%
- viability, T/C [15]: 39.8%
- viability, T/C [16]: 25.6%
- viability, T/C (second compound 1 µM, first compound 0.00316 µM): 100%
- viability, T/C (second compound 1 µM, first compound 0.01 µM): 81.5%
- viability, T/C [19]: 56.7%
- viability, T/C [20]: 55.4%
- viability, T/C [21]: 42.8%
- viability, T/C [22]: 28.2%
- viability, T/C (second compound 3.16 µM, first compound 0.00316 µM): 89.7%
- viability, T/C (second compound 3.16 µM, first compound 0.01 µM): 72.7%
- viability, T/C [25]: 59.1%
- viability, T/C [26]: 48%
- viability, T/C [27]: 43.6%
- viability, T/C [28]: 24.3%
- viability, T/C (second compound 10 µM, first compound 0.00316 µM): 75%
- viability, T/C (second compound 10 µM, first compound 0.01 µM): 65.1%
- viability, T/C [31]: 58.3%
- viability, T/C [32]: 53.3%
- viability, T/C [33]: 35.7%
- viability, T/C [34]: 24.5%

SMILES: CNCc1ccc(-c2[nH]c3cc(F)cc4c3c2CCNC4=O)cc1 + Nc1ccc(C#CCN(C(=O)Cc2ncc(C(F)(F)F)cc2C(F)(F)F)c2ccc(F)cc2)nn1
- IC50 (second compound 0.0316 µM): > 10 µM
- IC50 (second compound 0.1 µM): > 10 µM
- IC50 (second compound 0.316 µM): > 10 µM
- IC50 (second compound 1 µM): > 10 µM
- IC50 (second compound 3.16 µM): > 10 µM
- IC50 (second compound 10 µM): > 10 µM
- viability, T/C [1]: 98.4%
- viability, T/C [2]: 91.8%
- viability, T/C [3]: 98.2%
- viability, T/C [4]: 93.4%
- viability, T/C [5]: 97.7%
- viability, T/C [6]: 117%
- viability, T/C [7]: 112%
- viability, T/C [8]: 99.5%
- viability, T/C [9]: 114%
- viability, T/C [10]: 95.1%
- viability, T/C [11]: 110%
- viability, T/C [12]: 108%
- viability, T/C [13]: 104%
- viability, T/C [14]: 97.2%
- viability, T/C [15]: 96.3%
- viability, T/C [16]: 101%
- viability, T/C [17]: 93.2%
- viability, T/C [18]: 119%
- viability, T/C [19]: 99.2%
- viability, T/C [20]: 90.1%
- viability, T/C [21]: 93%
- viability, T/C [22]: 97%
- viability, T/C [23]: 106%
- viability, T/C [24]: 106%
- viability, T/C [25]: 94.5%
- viability, T/C [26]: 98%
- viability, T/C [27]: 103%
- viability, T/C [28]: 99.7%
- viability, T/C [29]: 97.1%
- viability, T/C [30]: 100%
- viability, T/C [31]: 88.1%
- viability, T/C [32]: 97.5%
- viability, T/C [33]: 99.3%
- viability, T/C [34]: 94.5%
- viability, T/C [35]: 103%
- viability, T/C [36]: 109%

SMILES: COc1ccc([C@@H](O)c2cc(-c3ncnc4cc(N5CCOCC5)ccc34)c(F)cc2Cl)nn1 + Nc1ccc(C#CCN(C(=O)Cc2ncc(C(F)(F)F)cc2C(F)(F)F)c2ccc(F)cc2)nn1
- IC50 (second compound 0.0316 µM): 5.34 µM
- IC50 (second compound 0.1 µM): 4.8 µM
- IC50 (second compound 0.316 µM): 6.69 µM
- IC50 (second compound 1 µM): 5.15 µM
- IC50 (second compound 3.16 µM): 4.04 µM
- IC50 (second compound 10 µM): 2.96 µM
- viability, T/C [1]: 110%
- viability, T/C [2]: 96.3%
- viability, T/C [3]: 93.1%
- viability, T/C [4]: 88.9%
- viability, T/C [5]: 66.2%
- viability, T/C [6]: 30.4%
- viability, T/C [7]: 105%
- viability, T/C [8]: 120%
- viability, T/C [9]: 91.1%
- viability, T/C [10]: 85.6%
- viability, T/C [11]: 59.2%
- viability, T/C [12]: 33.8%
- viability, T/C [13]: 100%
- viability, T/C [14]: 105%
- viability, T/C [15]: 96.5%
- viability, T/C [16]: 98.2%
- viability, T/C [17]: 87.9%
- viability, T/C [18]: 29.5%
- viability, T/C [19]: 107%
- viability, T/C [20]: 101%
- viability, T/C [21]: 99.5%
- viability, T/C [22]: 93.7%
- viability, T/C [23]: 64.7%
- viability, T/C [24]: 29.6%
- viability, T/C [25]: 97.1%
- viability, T/C [26]: 102%
- viability, T/C [27]: 87.1%
- viability, T/C [28]: 94%
- viability, T/C [29]: 55.5%
- viability, T/C [30]: 29.5%
- viability, T/C [31]: 99.9%
- viability, T/C [32]: 95.6%
- viability, T/C [33]: 95.4%
- viability, T/C [34]: 82.5%
- viability, T/C [35]: 48%
- viability, T/C [36]: 28.6%

From PubChem BioAssay AID1963828 (Molecular Pharmacology Branch, DTP, NCI, 2024)
